How the values were obtained:
[1] = tested on: RASMC; test: Northern blotting of atRA-induced retinoid-response gene mRNA in cultured RASMC; conditions: for expression of this gene set (the 14 atRA-inducible clones): Northern blot; for Peak Fold Induction: 2×10^−6 mol/L atRA
Experimental: Rat aortic smooth muscle cells (“RASMC”) were stimulated with atRA for the indicated times and then processed for total RNA isolation and Northern blotting. Two duplicate blots were then sequentially hybridized to each of the 14 cDNAs. Scanning densitometry was performed at each time point and normalized to the corresponding GAPDH signal to ascertain the peak mRNA induction value listed in Table 2.
Cultured rat aortic SMC (RASMC) were derived from aortas of male Sprague-Dawley rats by a combined explant-enzymatic digestion procedure as described previously (Miano et al., “Expression of the Smooth Muscle Cell Calponin Gene Marks the Early Cardiac and Smooth Muscle Cell Lineages During Mouse Embryogenesis,” J. Biol. Chem. 271:7095-7103 (1996), which is hereby incorporated by reference in its entirety). These cells were grown in Dulbecco's Modified Eagle's Medium (DMEM) supplemented with 10% fetal bovine serum (FBS), 2 mM L-glutamine and antibiotics. […] Unless indicated otherwise, cells were grown on 100-mm dishes and treated with either 2×10^−mol/L all-trans-retinoic acid (atRA) or an equal volume of dimethylsulfoxide (DMSO) for various times when culture was 70-80% confluent.
Total RNA from cultured RASMC and rat tissues was isolated by the acid phenol-guanidinium isothiocyanate method (Chomczynski et al., “Single-Step Method of RNA Isolation by Acid Guanidinium Thiocyanate-Phenol-Chloroform Extraction,” Anal. Biochem. 162:156-159 (1987), which is hereby incorporated by reference in its entirety). […] Independent samples of RNA were also obtained from RASMC treated for 3, 6, 12, 24, 48, 72, 96, and 120 hr with 2×10^−6 mol/L atRA to obtain a temporal pattern of expression for each positive clone. In some experiments the effects of cycloheximide (CHX, 2.5 μg/ml) on atRA-induced gene expression were examined. […] Total RNA was size-fractionated in 1.2% agarose-formaldehyde gels, transferred to nylon membranes and then hybridized and washed following standard procedures (ExpressHyb™, CLONTECH, Palo Alto, Calif.). A rat glyceraldehyde phosphate dehydrogenase (GAPDH) or 18 S probe was used as an internal control for RNA loading. Autoradiography was performed and exposure times varied so that band intensities could be reliably quantitated using NIH Image 1.60 analysis software.

[2] = tested on: RASMC; test: Cycloheximide (CHX) effects on atRA inducible gene expression, Northern blot; type: cell-based, rat; conditions: 2.5 μg/ml CHX
Experimental: All 4 genes show atRA-induced mRNA expression after 24 hr stimulation. […] SALF and Src-Suppressed C Kinase Substrate (“SSeCKS”) mRNA induction, however, is protein synthesis-independent. Refer to Table 2 for a complete summary of the CHX sensitivity studies.
To determine whether atRA-induced gene expression required de novo protein synthesis, rat aorta smooth muscle cell tissue was incubated with atRA in the absence or presence of cycloheximide (“CHX”) and then measured the expression of each atRA-inducible gene. […] On the other hand, atRA-induced Stoned B/TFIIAα/β-like factor (“SALF”) and Src Suppressed C Kinase Substrate (“SSeCKS”) mRNA were not blocked with CHX. In fact, there was a slight super-induction of these genes with CHX, shown in FIG. 6, which is a common characteristic of immediate early genes.

[3] = tested on: de novo protein synthesis; test: CHX effect on de novo protein synthesis and cytotoxicity; type: cell-based; conditions: CHX 2.5 μg/ml
Experimental: In some experiments the effects of cycloheximide (CHX, 2.5 μg/ml) on atRA-induced gene expression were examined.

[4] = tested on: RASMC; test: RISC mRNA expression after atRA, Northern blotting, RASMC; type: cell-based, rat
Experimental: FIGS. 9A-B show the induction of retinoid inducible serine carboxypeptidase (“RISC”) mRNA expression by atRA in a time-dependent manner. Total RNA isolated from RASMC treated with 2.0 μM atRA for 0, 3, 6, 12, 24, 48, 72, 96, 120 h was analyzed by Northern blotting with a rat RISC cDNA probe. […] Blots were also probed with GAPDH as a control for equal loading for each lane. Data shown are representative of two independent experiments.
(§1) 10-20 μg of total RNA from RASMC, PAC-1 SMC, hCASMC or rat tissues was fractionated on 1.1% agarose gel in the presence of 0.66 mol/L formaldehyde, transferred to nylon membrane, and hybridized with a 405 nt RISC cDNA probe labeled with α-^32P-dCTP. For human tissue Northern blotting, a Human Multiple Tissue Northern Blot was obtained from CLONTECH and hybridized with a human RISC DNA probe, cloned from a human BAC (AC007114; obtained from Research Genetics, Inc., Huntsville, Ala.) by PCR. Hybridizations were carried out in Rapid-hyb buffer (Amersham Life Science, Piscataway, N.J.) or Expresshyb Hybridization Solution (CLONTECH, Palo Alto, Calif.) containing labeled probe (˜2×10^6 cpm/ml) at 62-68° C. for 1-2 h or overnight, depending on the probe used. The blots were then washed under stringent conditions and exposed to Kodak XAR films for different lengths of time. Housekeeping genes used as internal controls for equal RNA loading included glyceraldehyde 3-phosphate dehydrogenase (GAPDH), 18 S rRNA, and β-actin.

[5] = tested on: PAC-1 SMC; test: RISC mRNA expression after atRA, Northern blotting, PAC-1 SMC; type: cell-based, rat
Experimental: as §1

[6] = tested on: hCASMC; test: RISC mRNA expression after atRA, Northern blotting, hCASMC; type: cell-based, human
Experimental: as §1

[7] = tested on: PAC1 SMC; test: Growth of PAC1 SMC stably transfected with RISC (cell counts over 5 days); type: cell-based, rat; conditions: three stably transfected RISC cell lines, 10% FBS, vs empty vector (mock)
Experimental: Rat or human RISC is cloned into a suitable mammalian expression plasmid including, but not limited to, pEF1/V5-His, and verified for expression by Western blotting (using an antibody that binds the His tag of the RISC-His fusion protein) of transiently-transfected cells. For transient transfection, subconfluent cells are overlayed with a DNA-calcium-phosphate coprecipitate containing the RISC expression plasmid and then allowed to incubate overnight The following day, cells are washed with phosphate-buffered saline and re-fed fresh growth medium for an additional 24-48 hours whereupon standard cell lysates are made for protein analysis via Western blotting. […] Following two weeks of selection in G418, resistant cell “clones” cartying the RISC-His fusion protein are isolated and expanded for further analysis.
Each of three stably transfected cell lines were grown in the presence of 10% FBS for 5 days and on each day total cell numbers were calculated with a hemocytometer. […] A graph illustrating the effects on SMC growth is shown at FIG. 17.

[8] = tested on: ERK; test: RISC attenuation of ERK activity (phospho-ERK immunoblot); type: cell-based, rat; conditions: RISC expressing cells vs mock cells; 30 minutes after serum stimulation
Experimental: Stable cell lines prepared according to Example 3 were grown to subconfluence and made quiescent by serum withdrawal (typically 0.5% FBS for 24-48 hours). Cells were then stimulated with serum or a purified growth factor (PDGF-BB) to stimulate the ERK pathway. At selected times following such stimulation, standard cell extracts were prepared to analyze the activation of ERK as measured by its phosphorylated state with a phospho-specific antibody.

For `CC1=C(/C=C/C(C)=C/C=C/C(C)=C/C(=O)Nc2ccc(O)cc2)C(C)(C)CCC1` [4-Hydroxyphenylretinamide], the “expression of this gene set (the 14 atRA-inducible clones)” value [1] was “elevated”.

For `CC1=C(/C=C/C(C)=C/C=C/C(C)=C\C(=O)O)C(C)(C)CCC1` [13-cis RA], the “expression of this gene set (the 14 atRA-inducible clones)” value [1] was “elevated”.

With `C[C@@H]1C[C@@H]([C@H](O)CC2CC(=O)NC(=O)C2)C(=O)[C@@H](C)C1` [CHX, cycloheximide] the “CHX Inhibit (atRA-induced mRNA expression)” value (from here on “CHX Inhibit”) ([2]; Cathepsin-L mRNA) was “Yes”, the “CHX Inhibit” value ([2]; Ceruloplasmin mRNA) was “Yes” and the “CHX Inhibit” value ([2]; Endolyn mRNA) was “No”. The “CHX Inhibit” value ([2]; Epithelin mRNA) was “Yes”, the “CHX Inhibit” value ([2]; Importin α mRNA) was “Yes” and the “CHX Inhibit” value ([2]; LDH-B mRNA) was “Yes”. For the same molecule, the “CHX Inhibit” value ([2]; LOX-1 mRNA) was “No”, the “CHX Inhibit” value ([2]; RDH mRNA) was “Yes” and the “CHX Inhibit” value ([2]; SALF mRNA) was “not blocked and No”. The “CHX Inhibit” value ([2]; SSAT mRNA) was “attenuated and completely blocked and Yes”, the “CHX Inhibit” value ([2]; SSeCKS mRNA) was “not blocked and No” and the “CHX Inhibit” value ([2]; VCAM-1 mRNA) was “Yes”. For the same molecule, the “CHX Inhibit” value ([2]; tTG mRNA) was “No”, the “CHX Inhibit” value ([2]; α8-integrin mRNA) was “attenuated and completely blocked and Yes” and the overt cytotoxicity [3] was “without any signs of overt cytotoxicity”. For the same molecule, the “reduction of de novo protein synthesis” value [3] was “more than 90%”, the “CHX effect on atRA-increased RISC expression” value ([4]; 24 hours following treatment) was “No change in RISC expression” and the “CHX effect on atRA-increased RISC expression” value ([4]; 48 hr following atRA treatment) was “blocked increased RISC expression”.

For `CC1=C(/C=C/C(C)=C/C=C/C(C)=C/C(=O)O)C(C)(C)CCC1` [atRA, all-trans-retinoic acid], the “time of peak increase in RISC mRNA following atRA stimulation” value [4] was “around 4 days”, the “RISC mRNA levels” value ([4]; 2.0 μM atRA, fresh atRA applied daily, 5 day time course) was “increased progressively” and the “RISC mRNA following atRA stimulation” value [5] was “increases in RISC mRNA”. The “RISC mRNA following atRA stimulation” value [6] was “increases in RISC mRNA”, the “Peak Fold Induction” value ([1]; Cathepsin-L mRNA, peak at 72 hr, relative to 0 time point) was 3.5 (72 hr) fold and the “Peak Fold Induction” value ([1]; Ceruloplasmin mRNA, peak at 72 hr, relative to 0 time point) was 2.0 (72 hr) fold. The “Peak Fold Induction” value ([1]; Endolyn mRNA, peak at 96 hr, relative to 0 time point) was 2.0 (96 hr) fold, the “Peak Fold Induction” value ([1]; Epithelin mRNA, peak at 48 hr, relative to 0 time point) was 2.9 (48 hr) fold and the “Peak Fold Induction” value ([1]; Importin α mRNA, peak at 12 hr, relative to 0 time point) was 4.0 (12 hr) fold. For the same molecule, the “Peak Fold Induction” value ([1]; LDH-B mRNA, peak at 24 hr, relative to 0 time point) was 4.6 (24 hr) fold, the “Peak Fold Induction” value ([1]; LOX-1 mRNA, peak at 3 hr, relative to 0 time point) was 7.2 (3 hr) fold and the “Peak Fold Induction” value ([1]; RDH mRNA, peak at 48 hr, relative to 3 hr time point as baseline) was >2.8 (48 hr) fold. The “Peak Fold Induction” value ([1]; SALF mRNA, peak at 3 hr, relative to 0 time point) was 4.1 (3 hr) fold, the “Peak Fold Induction” value ([1]; SSAT mRNA, peak at 48 hr, relative to 0 time point) was 4.8 (48 hr) fold and the “Peak Fold Induction” value ([1]; SSeCKS mRNA, peak at 12 hr, relative to 0 time point) was 4.8 (12 hr) fold. The “Peak Fold Induction” value ([1]; VCAM-1 mRNA, peak at 96 hr, relative to 0 time point) was 2.5 (96 hr) fold, the “Peak Fold Induction” value ([1]; tTG mRNA, peak at 12 hr, relative to 3 hr time point as baseline) was >4.0 (12 hr) fold and the “Peak Fold Induction” value ([1]; α8-integrin mRNA, peak at 72 hr, relative to 0 time point) was 2.4 (72 hr) fold.

B1: RISC: retinoid inducible serine carboxypeptidase protein, expressed as RISC-His fusion protein in stably transfected PAC1 SMC (protein, UniProt Q920A6 29-452, looked up)
Retinoid-inducible serine …: LNWREQEGKEVWDYVTVREDARMFWWLYYATNPCKNFSELPLVMWLQGGPGGSSTGFGNFEEIGPLDTRLKPRNTTWLQWASLLFVDNPVGTGFSYVNTTDAYAKDLDTVASDMMVLLKSFFDCHKEFQTVPFYIFSESYGGKMAAGISLELHKAIQQGTIKCNFSGVALGDSWISPVDSVLSWGPYLYSVSLLDNKGLAEVSDIAEQVLNAVNKGFYKEATQLWGKAEMIIEKNTDGVNFYNILTKSTPDTSMESSLEFFRSPLVRLCQRHVRHLQGDALSQLMNGPIKKKLKIIPDDVSWGAQSSSVFISMEEDFMKPVIDIVDTLLELGVNVTVYNGQLDLIVDTIGQESWVQKLKWPQLSRFNQLKWKALYTNPKSSETSAFVKSYENLAFYWILKAGHMVPADQGDMALKMMRLVTQQE
modifications: His tag
notes: retinoid inducible serine carboxypeptidase protein, expressed as RISC-His fusion protein in stably transfected PAC1 SMC
For B1, the “cell growth (total cell numbers by hemocytometer)” value [7] was “significant inhibition in cell growth” and the phospho-ERK activation [8] was “activated less phospho-ERK”.
